# Measurements: paper PMC3592886, “Utilization of Quantitative In Vivo Pharmacology Approaches to Assess Combination Effects of Everolimus and Irinotecan in Mouse Xenograft Models of Colorectal Cancer” (PLoS ONE, 2013)
# pIC50: −log10 of the molar value. Like-named read-outs stand apart in the source and are kept apart here. Marks after values point to notes of the source that are not given here.
# Columns and labels:
# [1] = Irinotecan and SN-38 plasma PK model and simulations in mice; conditions: PK model parameter, fit to data of previous publications (37-39)
# From the text: The pharmacokinetic models used for everolimus and irinotecan and SN38 in the above equations can be found in Supplement B. Data used to fit the everolimus pharmacokinetics was obtained in the study presented here. In the above equations, for irinotecan treatments, SN38 concentration was used to determine the effect since it is the active agent. The data used to fit the irinotecan and SN38 pharmacokinetics was obtained from previous publications (37-39).
# Irinotecan and SN-38 Plasma PK […]
# [2] = tested on: HT29 tumors; assay: NMR-based metabolomics of HT29 tumors; type: in vivo, mice; conditions: end of study
# Experimental: (§1) When HT29 and HCT116 tumors reached an average volume of ∼325 mm^3 animals were randomized into four treatment groups (n = 9–10 mice per group): (i) vehicles, (ii) 5 mg/kg everolimus (RAD) by oral gavage (PO) daily, (iii) 10 mg/kg irinotecan (IRI) once weekly by intravenous (iv) tail vein injection, and (iv) a combination of RAD and IRI. Everolimus, diluted in sterile water, and irinotecan, diluted in sterile 0.9% saline, were administered at 4 mL/kg. Animals were treated for 28 days. Tumor volumes and body weights were measured 2–3 times weekly. On day 28 of treatment 3–6 animals per group were sacrificed, approximately 24 hours following everolimus treatment, and tumors harvested for metabolomic analysis.
# For metabolomic analysis, animals were fasted for 4 hours then received 250 mg/kg of [1-^13C] glucose (Cambridge Isotopes, Cambridge, MA) by IV injection 60 minutes prior to tumor harvesting. Snap-frozen tumor specimens underwent two-phase acid extraction procedure (using 8% perchloric acid) previously established and extensively published [19]–[22]. Further details may also be found in Supplement S1 (section SA.2.).
# [3] = tested on: HCT116 tumor xenografts; assay: Therapeutic study and tumor growth modeling, HCT116 tumor xenografts; type: in vivo, mice
# Experimental: (§2) For tumor bearing studies, cells were harvested and resuspended in a 1∶1 mixture of serum-free RPMI and Matrigel (BD Bioscience). One million cells were injected subcutaneously into each rear flank of mice. Tumor volumes, measured by digital calipers, were calculated by V (mm^3) = length x (width)^2 x 0.5236.
# as §1
# (§3) Data from the in vivo study was modeled to assess the therapeutic benefit of adding everolimus to irinotecan. The model used was similar to a previously published model for assessing combination therapy. Some modifications were made and details of the model can be found in Supplement S1 (section SA.3.) and Supplement S2. All modeling was performed on individual animal tumor volume data and modeled with SAAM II version 2.1. […]
# (§4) are presented in Tables 1 and 2 in Supplement B. Individual fits of the model to the data can also be found in Supplement B. The average growth terms for each tumor type were then fixed at the average parameter value and used to determine the single agent effects (kx) of each compound by fitting the following equation: […] where cx(t) is the concentration of drug x with respect to time. Individual tumors were modeled and the average value of kx determined (Supplement B Tables 1 & 2) for each single agent treatment. This value was used to fit the following equation to the combination tumor growth data to determine the degree of interaction between the two drugs.
# (§5) , the interaction term, was determined for each individual tumor for each tumor type and the data is presented in Table 2 in the main text and individual fits can be found in Supplement B.
# (§6) We determined that values greater than 1.3 are synergistic, between 1.3 and 0.7 are additive, between 0.7 and 0 are less than additive, and negative values for are antagonistic. These ranges were selected based on the model fits. The CV% for the model fits ranged from 15 to 50 with an average CV% of approximately 30%. Therefore we assume an average variance of 30% making the additive range from 1.3 to 0.7 (1 + 30% and 1- 30%). […]
# [4] = tested on: HT29 tumor xenografts; assay: Therapeutic study and tumor growth modeling, HT29 tumor xenografts; type: in vivo, mice
# Experimental: as §2, §1, §3, §4, §5, §6
# [5] = Human pharmacokinetics of SN38 after irinotecan from the literature; type: in vivo; conditions: humans, irinotecan doses ranging from 125–350 mg/m^2, from literature data
# Experimental: (§7) In vivo SN38 data was evaluated to define the dose of irinotecan to be used since it is the active metabolite of irinotecan and carboxylesterase conversion of irinotecan to SN38 varies between mice and humans. Based on human and mouse pharmacokinetic data gathered from literature data [27]–[30], [35]–[40], we selected a dose of 10 mg/kg of irinotecan to be administered intravenously once weekly (Table 2).
# [6] = tested on: HCT116 cells; assay: Sulforhodamine B (SRB) anti-proliferation assay, HCT116; type: cell-based
# Experimental: (§8) Cytoxic effects were determined using the sulforhodamine B (SRB) assay. Briefly, 5000 viable cells were plated into 96-well plates and incubated overnight prior to exposure with different concentrations of drugs. Cells were exposed to increasing concentrations of everolimus (0–200 nM), SN38 (0–8 nM), and combinations of the two. Following a 72 hour incubation, media was removed and cells were fixed with cold 10% trichloroacetic acid for 30 minutes at 4° C. Cells were washed with water and stained with 0.4% SRB for 30 minutes at room temperature. Cells were washed again with 1% acetic acid and stain was solubilized with 10 mM tris at room temperature and read at an OD of 565 nm. […] The resulting Combination Index (CI) was used as a quantitative measure of the degree of interaction between different drugs. A CI value equal to 1 denotes additivity; CI greater than 1, antagonism; CI less than 1, synergism.
# [7] = SN38, humans; cited from earlier work
# [8] = Mouse pharmacokinetics of SN38 after irinotecan from the literature; type: in vivo; conditions: mice, irinotecan 10 mg/kg iv, estimated from literature data
# Experimental: as §7
# [9] = Human, cited from earlier work
# [10] = tested on: HT29 cells; assay: Sulforhodamine B (SRB) anti-proliferation assay, HT29; type: cell-based
# Experimental: as §8
# [11] = cited from earlier work; for AUC0→t: t = 6 h
# [12] = tested on: cleaved PARP; assay: Western blot, cleaved PARP in CRC cell lines; type: cell-based
# Experimental: (§9) Cells were seeded into 6-well plates 24 hours prior to treatment with each drug alone or in combination for 24 hours. Cells were scraped into RIPA buffer containing protease inhibitors, EDTA, NaF, and sodium orthovanadate. Total protein was determined using the Pierce 660 nm Protein Assay (Pierce, Rockford, IL). Thirty micrograms of total protein was loaded onto a 4–12% gradient gel, electrophoresed and transferred to nitrocellulose using the iBlot system (Invitrogen, Carlsbad, CA). Membranes were blocked for one hour at room temperature with Licor Blocking Buffer (Licor, Lincoln, NE) prior to overnight incubation at 4°C with one of the following antibodies: pS6RP, tS6RP, pAKT, tAKT, pERK, tERK, p21, PARP, actin and α-tubulin (Cell Signaling, Beverly, MA). All antibodies were used at a 1∶1000 dilution except for pERK, which was used at 1∶2000. Following primary antibody incubation, blots were washed in TBS-Tween(0.1%), then incubated with the appropriate secondary antibody at 1∶15,000 (Licor, Lincoln, NE) for one hour at room temperature. After three additional washes, blots were developed using the Licor Odyssey (Licor, Lincoln, NE).
# [13] = tested on: HCT8 cells; assay: Sulforhodamine B (SRB) anti-proliferation assay, HCT8; type: cell-based; conditions: RAD (20 nM), SN38 (4 nM) or the combination of the two, Figure 2
# Experimental: as §8
# [14] = tested on: p21; assay: Western blot, p21 in CRC cell lines; type: cell-based; conditions: SN38 4 nM, 24 hours, HCT116 and HCT8 cells
# Experimental: as §9
# [15] = SN38, mice; cited from earlier work
# [16] = SN38 after irinotecan 125mg/m^2, 1.5 hr INF, ref 27
# [17] = SN38 after irinotecan 125mg/m^2, 1.5 hr INF, ref 29
# [18] = SN38 after irinotecan 340mg/m^2, 1.5 hr INF
# [19] = SN38 after irinotecan 350mg/m^2, 1 hr INF, Week 4 PK with cetuximab
# [20] = SN38 after irinotecan 350mg/m^2, 1 hr INF
# [21] = SN38 after irinotecan 5mg/kg IV Bolus, Mouse
# [22] = SN38 after irinotecan 10mg/kg IV Bolus, Mouse, ref 39
# [23] = SN38 after irinotecan 20mg/kg IV Bolus, Mouse
# [24] = SN38 after irinotecan 40mg/kg IV Bolus, Mouse
compound,measurement,setting,value
CCc1c2c(nc3ccc(OC(=O)N4CCC(N5CCCCC5)CC4)cc13)-c1cc3c(c(=O)n1C2)COC(=O)[C@]3(O)CC [Irinotecan],"k(0,1)","[1]; K(0,1)IRI",0.25 h⁻¹
same,"k(3,1)",[1]; compartment 1 (irinotecan) to 3 (SN-38),1.91 h⁻¹
same,V1,"[1]; irinotecan central compartment, Dose = 10 mg/kg",2.8 L/kg
same,"k(1,2)",[1],1.15 h⁻¹
same,"k(2,1)",[1],0.87 h⁻¹
same,effect on tumor lipids,[2],accumulation of lipids
same,"k1 (SD), single agent effect","[3]; HCT116 (KRAS and PIK3CA mutant), IRI, SN38 concentration used in the model",0.0149 (0.0086) mL/ng*day-1
same,"average tumor growth inhibition, TGI","[3]; HCT116 xenografts, 5 mg/kg everolimus PO daily, 10 mg/kg irinotecan iv once weekly, or combination, 28 days",17%
same,"k1 (SD), single agent effect","[4]; HT29 (BRAF and PIK3CA mutant), IRI, SN38 concentration used in the model",0.0092 (0.0023) mL/ng*day-1
same,"average tumor growth inhibition, TGI","[4]; HT29 xenografts, 5 mg/kg everolimus PO daily, 10 mg/kg irinotecan iv once weekly, or combination, 28 days",39%
CCc1c2c(nc3ccc(O)cc13)-c1cc3c(c(=O)n1C2)COC(=O)[C@]3(O)CC [SN38],AUCfree of SN38,[5],4.4 to 18.6 ng·h/mL
same,%Growth Inhibition,"[6]; HCT116, RAD (20 nM), SN38 (4 nM) or the combination of the two, Figure 2",23%
same,pIC50,[6]; HCT116 cells,< 6.52
same,plasma protein binding,[7],98%
same,AUCfree of SN38,[8],7.5 to 25.8 ng·h/mL
same,"k(0,3)","[1]; K(0,3)SN38",4.67 h⁻¹
same,V3,[1]; SN-38 central compartment,2.7 L/kg
same,"k(3,4)",[1],1.38 h⁻¹
same,"k(4,3)",[1],5.22 h⁻¹
same,AUC0→t,[9]; [16],229 ± 108 ng·h/mL
same,Cmax,[9]; [16],26.3 ± 11.9 ng/mL
same,t½,[9]; [16],10.4 ± 3.1 h
same,AUC0→t,[9]; [17],228 ± 149 ng·h/mL
same,Cmax,[9]; [17],27 ± 12 ng/mL
same,t½,[9]; [17],28.5 h
same,AUC0→t,"[9]; SN38 after irinotecan 180mg/m^2, 1.5 hr INF, footnote a: Week 4 PK with cetuximab",222–245 ^a ng·hr/mL
same,AUC0→t,[9]; [18],474 ± 245 ng·h/mL
same,Cmax,[9]; [18],56.0 ± 28.2 ng/mL
same,t½,[9]; [18],21.0 ± 4.3 h
same,AUC0→t,[9]; [19],609±531 ^a ng·hr/mL
same,Cmax,[9]; [19],57±20 ^a ng/mL
same,t½,[9]; [19],15±23 ^a hr
same,AUC0→t,[9]; [20],931 ± 948 ng·h/mL
same,Cmax,[9]; [20],88 ± 26 ng/mL
same,t½,[9]; [20],23 ± 35 h
same,%Growth Inhibition,"[10]; HT29, RAD (20 nM), SN38 (4 nM) or the combination of the two, Figure 2",59%
same,pIC50,[10]; HT29 cells,8.52
same,AUC0→∞,[11]; [21],279 ^c ng·hr/mL
same,Cmax,[11]; [21],647 ng/mL
same,Cmax,"[11]; SN38 after irinotecan 10mg/kg IV Bolus, Mouse (row r13), estimated from graph in reference",443–673 ^b ng/mL
same,AUC0→∞,"[11]; SN38 after irinotecan 10mg/kg IV Bolus, Mouse (row r13)",533–1029 ^c ng·hr/mL
same,Cmax,"[11]; SN38 after irinotecan 10mg/kg IV Bolus, Mouse, estimated from graph in reference",435–600 ^b ng/mL
same,t½,"[11]; SN38 after irinotecan 10mg/kg IV Bolus, Mouse, ref 36",2.2 h
same,AUC0→∞,"[11]; SN38 after irinotecan 10mg/kg IV Bolus, Mouse, ref 37",533–759 ^c ng·hr/mL
same,AUC0→∞,[11]; [22],534 ^c ng·hr/mL
same,Cmax,[11]; [22],443 ng/mL
same,AUC0→t,"[11]; SN38 after irinotecan 10mg/kg IV Bolus, Mouse",410±60 (t = 6 h) ng·hr/mL
same,AUC0→t,[11]; [23],710±240 (t = 6 h) ng·hr/mL
same,t½,[11]; [23],3.0 h
same,AUC0→t,[11]; [24],1080±110 (t = 6 h) ng·hr/mL
same,t½,[11]; [24],3.4 h
same,cleaved PARP (MW 89),[12]; SN38 treated HCT8 cells,A small amount
same,cleaved PARP (MW 89),[12]; SN38 treated HT29 or HCT116 cells,not
same,%Growth Inhibition,[13],50%
same,effect on p21,[14],increase
same,plasma protein binding,[15],96.6–98.6%
